Consider five compounds from PMC3546862, “Assessing the utility of an anti-malarial pharmacokinetic-pharmacodynamic model for aiding drug clinical development” (Malaria Journal, 2012).

One series concerns human plasma protein. In words: Human plasma protein binding by ultracentrifugation. Format: in vitro ADME. Conditions: ultracentrifugation 4.2 hours at 37°C. As to the method: (§1) Estimates of drug binding to the in vitro testing media (i.e. 0.5% Albumax in RPMI) and human plasma were determined using ultracentrifugation. Briefly, blank Albumax media and plasma were each spiked with compound and divided into six aliquots; three aliquots were subjected to ultracentrifugation (Beckman Optima XL-100K Ultracentrifuge, Rotor type 42.2 Ti; 223,000 x g) for 4.2 hours at 37°C to pellet the proteins whereas the remaining three aliquots served as controls and were incubated at 37°C for the same time period but without centrifugation. Controls were also stored at −20°C to confirm sample stability over the centrifugation period. Aliquots of the supernatants from the ultracentrifuged samples were first diluted 1:1 in acetonitrile, assayed by LC-MS and the responses compared to a calibration curve prepared in 50% aqueous acetonitrile to determine the unbound (i.e. free) concentration. Control concentrations in each matrix were determined using LC-MS by first precipitating the proteins with acetonitrile (3:1 acetonitrile: matrix) and then comparing the responses to a calibration curve from a blank matrix prepared using the same protein precipitation procedure. The free fraction in each matrix was then determined from the ratio of the average unbound (e.g. free) concentration to the average total concentration in each matrix.

The test system of series [1] is P. falciparum strain NF54. In words: [3H]-hypoxanthine incorporation assay, asynchronous intraerythrocytic forms. Format: cell-based. Conditions: for IC50: Plasmodium falciparum. On the procedure: (§2) The fresh P. falciparum parasite isolates were obtained from blood samples of 487 patients attending outpatient clinics in Papua, Indonesia between 2004 and 2010 [26]. The in vitro drug susceptibility was determined using the World Health Organization guidelines for schizont maturation tests. The in vitro data for artemether were measured at the Swiss Tropical and Public Health Institute (Switzerland; Basel) against asynchronous intraerythrocytic forms of the P. falciparum strain NF54 (obtained from MR4) using the [3H]-hypoxanthine incorporation assay.

The conditions of series [2]: cited from earlier work.
The subject of series [3] is P. falciparum. Set-up: method as in PMID 2648881. Conditions: assumed; cited from earlier work.
For another series, the target named is 0.5% Albumax in RPMI (Bos taurus, UniProt P02769). In words: Binding to in vitro testing media by ultracentrifugation. Type of series: in vitro ADME. Conditions: ultracentrifugation 4.2 hours at 37°C. On the procedure: as §1
Series [4] concerns P. falciparum. In words: Parasite reduction ratio from published clinical data and kmax calculated from it. Conditions: kmax = 1/KZ x ln PRR + 1/48 x ln PMF, PMF = 10. Type of series: in vivo. From the text:
(§3) The maximal killing rate (kmax) of the drug was assumed to follow a triangular distribution. The middle values were taken from published clinical data. Piperaquine was the only drug with no clinical studies of it administered as a monotherapy and the mode was set to a value equal to that derived from in vitro experiments. The minimum and maximum values of the triangular distribution for each anti-malarial correspond to a 50-fold decrease and 50-fold increase in the number of parasites killed every 48 hours.

Series [5] in a line: Whole blood to plasma partitioning ratio (B/P). Conditions: human, whole blood and plasma; 37°C, 2 min incubation. Format: in vitro ADME. As to the method:
The whole blood to plasma partitioning ratio (B/P) was determined by spiking aliquots of whole blood or plasma maintained at 37°C with compound, incubating for 2 min, and then centrifuging the whole blood sample to obtain the plasma fraction. Both the plasma fraction of whole blood and the plasma control were assayed for compound by LC-MS as described above. The blood to plasma ratio was calculated from the ratio of the concentration in the plasma control (used as a surrogate for the total whole blood concentration since whole blood assays were not available for each compound) to that in the plasma fraction of whole blood. The two-minute time point was used to avoid confounding issues due to potential blood instability; rapid equilibration between plasma and erythrocytes was assumed.

The test system of series [6] is fresh P. falciparum parasite isolates. Description: In vitro drug susceptibility, schizont maturation test (WHO guidelines) on fresh patient isolates. Conditions: for IC50: Plasmodium falciparum; for γ, mean on loge scale of log-normal distribution lnN(μ ln, σ ln): first parameter of lnN; for γ (Slope of concentration-effect curve): in vitro. Type of series: cell-based. As to the method: as §2

The test system of series [7] is P. falciparum. Conditions: every 48 hours; published clinical data; cited from earlier work.
For series [8], the system named is P. falciparum. In words: Parasite reduction ratio from in vitro killing rate experiments and kmax calculated from it. Format: cell-based. Conditions: kmax = 1/KZ x ln PRR + 1/48 x ln PMF, PMF = 10; PRR from in vitro experiments.
Source text: as §3

Another series has as its system ring stage parasites. The arrangement: method as in PMID 21173254. Conditions: patients with delayed PCTs; cited from earlier work.
The mark [9] stands for this setting: geometric mean, adjusted to whole blood, lower limit a of EC50 distribution, read-out: IC50 (adjusted) concentration.
Setting [10] is: geometric mean, not corrected for binding, isolates of 487 patients, Papua, Indonesia, read-out: IC50 measured concentration.
The mark [11] stands for this setting: not corrected for binding, from nM and molecular weight, read-out: IC50 concentration.

The structures appear in SMILES notation. Values after ≈ are worked out from the molar mass of the structure shown. Read-outs that look alike come from different tables or passages of the source. Marks after values point to notes of the source that are not given here.

0.5% Albumax in RPMI, sequence (P02769 25-607): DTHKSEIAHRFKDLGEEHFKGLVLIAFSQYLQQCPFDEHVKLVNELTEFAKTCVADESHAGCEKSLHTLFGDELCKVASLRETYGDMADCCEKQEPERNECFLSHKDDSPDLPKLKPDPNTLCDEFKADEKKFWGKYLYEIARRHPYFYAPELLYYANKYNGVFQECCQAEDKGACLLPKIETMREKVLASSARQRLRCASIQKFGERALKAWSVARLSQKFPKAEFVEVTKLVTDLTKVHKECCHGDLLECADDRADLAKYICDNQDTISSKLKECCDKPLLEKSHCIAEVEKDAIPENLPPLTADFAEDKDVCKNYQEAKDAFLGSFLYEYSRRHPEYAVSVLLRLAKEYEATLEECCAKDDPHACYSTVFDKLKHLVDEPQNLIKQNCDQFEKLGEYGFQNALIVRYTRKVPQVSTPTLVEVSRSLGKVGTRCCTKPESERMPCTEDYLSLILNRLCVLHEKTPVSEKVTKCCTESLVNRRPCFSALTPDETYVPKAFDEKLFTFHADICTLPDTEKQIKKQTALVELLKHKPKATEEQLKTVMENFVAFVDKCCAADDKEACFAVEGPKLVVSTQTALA

As to `CO[C@H]1O[C@@H]2O[C@@]3(C)CC[C@H]4[C@H](C)CC[C@@H]([C@H]1C)[C@@]24OO3` [ART, artemether], the “Human plasma protein binding” value with human plasma protein is 91.7 % bound. Also, the IC50 in [1] (adjusted to whole blood, lower limit a of EC50 distribution, read-out: IC50 (adjusted) concentration) is 4.38 ng/mL (≈ 0.0147 µM). Besides, the IC50 in series [1] (not corrected for binding, read-out: IC50 concentration) came out at 2.64 ng/mL (≈ 0.00885 µM). Further, in series [1] (first parameter of lnN), the “γ, mean on loge scale of log-normal distribution lnN(μ ln, σ ln)” value was “lnN(1.53, 0.31)”. For the same compound, in [1] (in vitro), the “γ (Slope of concentration-effect curve)” value came out at 4.61. In series [2], the “CL/F (clearance)” value was 180 L/h, the “V/F (volume of distribution)” value is 217 L and the “ka (absorption rate constant)” value is 0.37 h⁻¹. Further, the “KZ (length of the killing zone)” value in the series on P. falciparum [3] is 38 h. Also, the “Binding to media of in vitro experiment (0.5% Albumax)” value (from here on “Binding to media … (0.5% Albumax)”) at 0.5% Albumax in RPMI turned out to be 82.8 % bound. The “kmax, mode c of triangular distribution TRI(a, b, c)” value (from here on “kmax, mode c”) in the series with P. falciparum [4] is recorded as “TRI(0.12, 0.33, 0.22)^c /h”. Further, in series [5], the blood plasma ratio at 2 min was found to be 0.8.
For the compound `CCCCN(CCCC)CC(O)c1cc(Cl)cc2c1-c1ccc(Cl)cc1/C2=C/c1ccc(Cl)cc1` (stereo not drawn) [LF, lumefantrine], the “Human plasma protein binding” value with human plasma protein is 98.7 % bound. Moreover, the IC50 in series [6] (setting [9]) came to 1.75 ng/mL. Further, the IC50 in [6] (setting [10]) is 13.4 nM. Moreover, the IC50 in [6] (setting [11]) came to 7.1 ng/mL. Also, in series [6], the “γ, mean on loge scale of log-normal distribution lnN(μ ln, σ ln)” value is “lnN (0.81, 0.58)” and the “γ (Slope of concentration-effect curve)” value was determined as 2.24. Further, in series [2], the “CL/F (clearance)” value was 7.04 L/h, the “Q/F (inter-compartmental clearance)” value is reported as 4.08 L/h, the “Vc/F (volume of central compartment)” value is given as 103 L and the “Vp/F (volume of peripheral compartment)” value was 272 L. The “ka (absorption rate constant)” value in [2] is 0.17 h⁻¹. In addition, in the series with P. falciparum [3], the “KZ (length of the killing zone)” value was 22 h. In addition, at 0.5% Albumax in RPMI, the “Binding to media … (0.5% Albumax)” value was determined as 99.6 % bound. Further, in the series on P. falciparum [4], the “kmax, mode c” value is on record as “TRI(0.18, 0.54, 0.36)^c /h”. For the same compound, the “PRR (parasite reduction ratio)” value in the series on P. falciparum [7] is 10^3. Further, the blood plasma ratio at 2 min in series [5] came out at 0.8.
As for `OC(c1cc(C(F)(F)F)nc2c(C(F)(F)F)cccc12)C1CCCCN1` (stereo not drawn) [MQ, mefloquine], in the series on human plasma protein, the “Human plasma protein binding” value came to 95.6 % bound. The IC50 in series [6] (setting [9]) worked out at 21 ng/mL; in series [6] (setting [10]), 9.34 nM; in [6] (setting [11]), 3.53 ng/mL. Further, in series [6], the “γ, mean on loge scale of log-normal distribution lnN(μ ln, σ ln)” value is “lnN (0.97, 0.54)”. In addition, the “IC50 (adjusted) concentration” value in series [6] (geometric mean, adjusted to whole blood, lower limit a of EC50 distribution) is 20.48 ng/mL (≈ 0.0541 µM). The “γ (Slope of concentration-effect curve)” value in series [6] came to 2.63. The “V/F (volume of distribution)” value in series [2] is given as 10.2^f L/kg. In addition, in the series on P. falciparum [3], the “KZ (length of the killing zone)” value is 22 h. Further, the “Binding to media … (0.5% Albumax)” value on 0.5% Albumax in RPMI was 85 % bound. The “kmax, mode c” value in the series on P. falciparum [4] is “TRI(0.11, 0.46, 0.28)^c /h”.
For the compound `Clc1ccc2c(N3CCN(CCCN4CCN(c5ccnc6cc(Cl)ccc56)CC4)CC3)ccnc2c1` [PQ, piperaquine], the “Human plasma protein binding” value with human plasma protein is on record as 98.6 % bound. Besides, the IC50 in series [6] (setting [9]) worked out at 11.6 ng/mL. The IC50 in [6] (setting [10]) was found to be 17.7 nM. Besides, in [6] (setting [11]), the IC50 was 9.46 ng/mL. The “γ (Slope of concentration-effect curve)” value in series [6] turned out to be 3.48. Further, in [2] (48kg individual), the “CL/F (clearance)” value is listed as 66 L/h, the “Q/F (inter-compartmental clearance)” value is listed as 131 L/h, the “Vc/F (volume of central compartment)” value is 8660 L and the “Vp/F (volume of peripheral compartment)” value is 24000 L. Further, the “ka (absorption rate constant)” value in [2] (48kg individual) is 0.717 h⁻¹. Further, in the series with P. falciparum [3], the “KZ (length of the killing zone)” value was 24 h. At 0.5% Albumax in RPMI, the “Binding to media … (0.5% Albumax)” value stood at 98.1 % bound. In the series with P. falciparum [8], the “kmax, mode c” value is given as “TRI(0.33, 0.65, 0.49)^c /h”. Also, the blood plasma ratio at 2 min in [5] was 0.9.
Take `C[C@H]1[C@H](OC(=O)CCC(=O)O)O[C@@H]2O[C@@]3(C)CC[C@H]4[C@H](C)CC[C@@H]1[C@@]24OO3` [artesunate]: in the series on ring stage parasites, the “Maximal killing rate for the ring stages, mean” value is 62 % /cycle.
